Results taken from patent US20240207208A1, “Treatments for Diabetes Mellitus and Obesity” (The Board of Trustees of the Leland Stanford Junior …, priority 2011, published 2024).

How the values were obtained:
[1] = Oral glucose tolerance test (OGTT) after local RTX treatment of the intestine; assay type: in vivo, Sprague-Dawley rats
Excerpt: (§1) Adult male Sprague-Dawley rats (Harlan, Indianapolis, IN) weighing 280-350 g were used in all the experiments. The animal protocol was approved by the Institutional Animal Care and Use Committee of the Stanford University Medical Center.
(§2) Rats were randomly divided into six groups: 1, vehicle solution treated on the surface of duodenum (n=4); 2, RTX solution treated on the surface of duodenum (n=4); 3, vehicle solution treated on the surface of ileum (1 rat) or colon (1 rat) (n=2); 4, RTX solution treated on the surface of ileum (2 rats) or colon (1 rat) (n=3); 5. Vehicle solution infuse into duodenum (n=2); 6. RTX solution infuse into duodenum (n=3).
Rats were fasted overnight prior to surgery having free access to water. Under 2% isoflurane-induced anesthesia, the abdomen was opened through a midline incision for the duodenum treatment and lower line for ileum or colon treatment. These intestines were exposed and protected with warm saline sponges around the intestine. Procedure 1: RTX application on the surface of intestine: The cotton applicator with RTX((0.32 mM) or vehicle solution were gently applied topically to the outer surface of entire duodenum (about 10 cm from the beginning of the duodenum) for 5 min. Same treatment in ileum and colon groups were applied on about 10 cm long of distal ileum and colon. Procedure 2: RTX or vehicle infused into duodenum: Two atraumatic clamps used to block on beginning and distal of duodenum. 0.8 ml of 0.32 mM RTX or vehicle was infused into duodenum through a glass syringe with a 27 gauge needle. After 30 min the RTX or vehicle solution were withdrawn and the clamps were released. After treatment, the abdominal incisions were closed. […]
Post RTX treatment 1st, 3rd and 7th week all the rats were performed the OGTT. After 17 hours overnight fasting, blood glucose was measured in conscious rats by tail-stick, using a glucose meter (Bayer Healthcare LLC, Mishawaka, IN). OGTT was measured before (baseline) and each 15 minutes for 2 hours after oral gavage glucose (1 g/kg body weight). […]

[2] = Body weight change monitoring after local RTX treatment of the intestine; assay type: in vivo, Sprague-Dawley rats; parameters: body weight: unit not given here; conditions: for body weight: mean±s.e.
Excerpt: as §1, §2
Rats were fasted overnight prior to surgery having free access to water. Under 2% isoflurane-induced anesthesia, the abdomen was opened through a midline incision for the duodenum treatment and lower line for ileum or colon treatment. These intestines were exposed and protected with warm saline sponges around the intestine. Procedure 1: RTX application on the surface of intestine: The cotton applicator with RTX((0.32 mM) or vehicle solution were gently applied topically to the outer surface of entire duodenum (about 10 cm from the beginning of the duodenum) for 5 min. Same treatment in ileum and colon groups were applied on about 10 cm long of distal ileum and colon. Procedure 2: RTX or vehicle infused into duodenum: Two atraumatic clamps used to block on beginning and distal of duodenum. 0.8 ml of 0.32 mM RTX or vehicle was infused into duodenum through a glass syringe with a 27 gauge needle. After 30 min the RTX or vehicle solution were withdrawn and the clamps were released. After treatment, the abdominal incisions were closed.
RTX solution: RTX stock solution: 1 mg RTX+10% ethanol+10% Tween-80 in saline to make 1 μg RTX/μl in stock solution. RTX work solution (0.32 mM): stock RTX solution (0.2 ml)+Saline (0.8 ml); Vehicle (like stock solution without RTX)
The body weight of rats was measured before RTX treatment and each blood glucose testing day.
Data are presented as means±s.e. Data were compared using Student's t-test. Differences were considered significant at <0.05.

## C=C(C)[C@]12C[C@@H](C)[C@@]34O[C@](Cc5ccccc5)(O[C@@H]1[C@@H]3C=C(COC(=O)Cc1ccc(O)c(OC)c1)C[C@]1(O)C(=O)C(C)=C[C@@H]41)O2 [RTX, Resiniferatoxin]
[1]; 0.8 ml of 0.32 mM RTX infused into duodenum, 30 min, 2 hours testing time, all testing days
  glucose tolerance compared with vehicle group (OGTT): not significantly different
[1]; RTX 0.32 mM topically on the surface of duodenum, 5 min, 30 and 45-minute peak levels, 1st, 3rd and 7th week post treatment, P<0.05
  glucose tolerance compared with vehicle group (OGTT): better glucose tolerance
[1]; RTX 0.32 mM topically on the surface of ileum or colon, 2 hours testing time, all testing days
  glucose tolerance compared with vehicle group (OGTT): not significantly different
[2]; RTX infused into duodenum, 1st week post treatment
  body weight: 102.4±3.0
[2]; RTX infused into duodenum, 3rd week post treatment
  body weight: 123.1±1.6
[2]; RTX infused into duodenum, 7th week post treatment
  body weight: 136.3±2.5
[2]; RTX infused into duodenum, all measurement days
  body weight compared with vehicle group: not significantly different
[2]; RTX on the surface of duodenum, 1st week post treatment, P<0.05 vs vehicle and vs RTX infusion
  body weight: 92.0±1.0
[2]; RTX on the surface of duodenum, 3rd and 7th week post treatment
  body weight compared with vehicle group: not significantly different
[2]; RTX on the surface of duodenum, 3rd week post treatment, P<0.05 vs RTX infusion
  body weight: 110.5±2.6
[2]; RTX on the surface of duodenum, 7th week post treatment, P<0.05 vs RTX infusion
  body weight: 118.9±0.9
[2]; RTX on the surface of ileum or colon, all measurement days
  body weight compared with vehicle group: not significantly different
